Test results from PubChem BioAssay (NCI).
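A five-concentration, 48-hour dose response in 96-well plates underlies each endpoint, interpolated linearly between surrounding concentrations. GI50 is the concentration that inhibits growth by half. TGI denotes the concentration required for complete inhibition of growth.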

What was measured:
Test in all cases: growth of human tumour cells (NCI), 48 h
CAKI-1 renal = tested on: CAKI-1 renal
HCC-2998 colon = tested on: HCC-2998 colon
NCI-H226 lung = tested on: NCI-H226 lung
SF-268 CNS = tested on: SF-268 CNS
SNB-75 CNS = tested on: SNB-75 CNS
HS 578T breast = tested on: HS 578T breast
MDA-MB-435 = tested on: MDA-MB-435
U251 CNS = tested on: U251 CNS
SW-620 colon = tested on: SW-620 colon
SR leukemia = tested on: SR leukemia

## CC(=O)N1c2ccccc2C23CCN4CC5=CCOC(O)C(C5CC42)C13 (centres undefined)
CAKI-1 renal
  TGI: > 100 µM
HCC-2998 colon
  TGI: > 100 µM
NCI-H226 lung
  TGI: > 100 µM
SF-268 CNS
  TGI: > 100 µM
SNB-75 CNS
  TGI: > 100 µM
HS 578T breast
  TGI: > 100 µM
MDA-MB-435
  TGI: > 100 µM
U251 CNS
  TGI: > 100 µM
SW-620 colon
  TGI: > 100 µM

## COC1OC(C)C(OC(=O)C(C)(C)C)C(C)(O)C1O (centres undefined)
CAKI-1 renal
  TGI: > 100 µM
HCC-2998 colon
  TGI: > 100 µM
SR leukemia
  TGI: > 100 µM
SF-268 CNS
  TGI: > 100 µM
U251 CNS
  TGI: > 100 µM
SW-620 colon
  TGI: > 100 µM

## CC(=O)Nc1ccc(/C=c2\sc3nnc(/C=C/c4ccccc4)n3c2=O)cc1
CAKI-1 renal
  TGI: > 50 µM
HCC-2998 colon
  TGI: > 50 µM
NCI-H226 lung
  TGI: > 50 µM
SF-268 CNS
  TGI: > 50 µM
SNB-75 CNS
  TGI: > 50 µM
U251 CNS
  TGI: > 50 µM
SW-620 colon
  TGI: > 50 µM

## CSc1s[s+]c(SC)c1[O-]
CAKI-1 renal
  TGI: 53.6 µM
HCC-2998 colon
  TGI: > 100 µM
NCI-H226 lung
  TGI: > 100 µM
SR leukemia
  TGI: 37 µM
SF-268 CNS
  TGI: 55.8 µM
SNB-75 CNS
  TGI: > 100 µM
U251 CNS
  TGI: 86.5 µM
SW-620 colon
  TGI: 31.7 µM

## COc1ccc(OC)c(-c2nc3sccn3c2/C=C2/C(=O)Nc3ccccc32)c1
CAKI-1 renal
  GI50: 0.506 µM
  TGI: 8.68 µM
NCI-H226 lung
  GI50: 1.4 µM
  TGI: 4.89 µM
SF-268 CNS
  GI50: 1.33 µM
  TGI: 24.2 µM
SNB-75 CNS
  GI50: 2.95 µM
  TGI: > 100 µM
HS 578T breast
  GI50: 0.415 µM
  TGI: 2.3 µM
MDA-MB-435
  GI50: 0.111 µM
  TGI: 0.293 µM
U251 CNS
  GI50: 1.06 µM
  TGI: 15 µM
SW-620 colon
  GI50: 0.506 µM
  TGI: 21.4 µM

## C#C[C@]1(O)CC[C@H]2[C@@H]3CC=C4c5nc(Nc6ccc(OC)cc6OC)sc5CC[C@]4(C)[C@H]3CC[C@@]21C
CAKI-1 renal
  GI50: 1.39 µM
  TGI: 5.74 µM
HCC-2998 colon
  GI50: 2.17 µM
  TGI: 5.59 µM
NCI-H226 lung
  GI50: 2.3 µM
  TGI: 6.23 µM
SR leukemia
  GI50: 0.523 µM
  TGI: 11.2 µM
SF-268 CNS
  GI50: 1.75 µM
  TGI: 6.65 µM
HS 578T breast
  GI50: 0.411 µM
  TGI: 2.36 µM
MDA-MB-435
  GI50: 1.76 µM
  TGI: 4.39 µM
U251 CNS
  GI50: 0.77 µM
  TGI: 4.09 µM
SW-620 colon
  GI50: 1.55 µM
  TGI: 3.71 µM

## COCCOC(C)C(/C=N/NC(N)=S)=N/NC(N)=S (centres undefined)
CAKI-1 renal
  GI50: > 100 µM
  TGI: > 100 µM
HCC-2998 colon
  GI50: > 100 µM
  TGI: > 100 µM
NCI-H226 lung
  GI50: > 100 µM
  TGI: > 100 µM
SF-268 CNS
  GI50: > 100 µM
  TGI: > 100 µM
SNB-75 CNS
  GI50: > 100 µM
  TGI: > 100 µM
HS 578T breast
  GI50: > 100 µM
  TGI: > 100 µM
MDA-MB-435
  GI50: > 100 µM
  TGI: > 100 µM
U251 CNS
  GI50: > 100 µM
  TGI: > 100 µM
SW-620 colon
  GI50: > 100 µM
  TGI: > 100 µM

## O=C1C=C(Br)C(=O)C(Br)=C1
CAKI-1 renal
  TGI: > 100 µM
HCC-2998 colon
  TGI: > 100 µM
NCI-H226 lung
  TGI: > 100 µM
SR leukemia
  TGI: > 80.6 µM
SF-268 CNS
  TGI: > 100 µM
SNB-75 CNS
  TGI: > 100 µM
U251 CNS
  TGI: > 100 µM
SW-620 colon
  TGI: > 100 µM

## C=C(CO)CC(O)c1ccccc1 (centres undefined)
HCC-2998 colon
  TGI: > 100 µM
NCI-H226 lung
  TGI: > 100 µM
SF-268 CNS
  TGI: > 100 µM
SNB-75 CNS
  TGI: > 100 µM
U251 CNS
  TGI: > 100 µM
SW-620 colon
  TGI: > 100 µM

## COc1ccc2[nH]cc(/C=C3\C(=O)Nc4ccccc43)c2c1
CAKI-1 renal
  GI50: 4.12 µM
  TGI: 26.4 µM
NCI-H226 lung
  GI50: 7.65 µM
  TGI: 35.9 µM
SR leukemia
  GI50: 1.96 µM
  TGI: 5.2 µM
SF-268 CNS
  GI50: 5.92 µM
  TGI: 29.9 µM
SNB-75 CNS
  GI50: 3.14 µM
  TGI: 15.1 µM
HS 578T breast
  GI50: 3.79 µM
  TGI: 19.9 µM
MDA-MB-435
  GI50: 2.39 µM
  TGI: 5.97 µM
U251 CNS
  GI50: 6.12 µM
  TGI: 21.2 µM
SW-620 colon
  GI50: 2.92 µM
  TGI: 12.8 µM

## Cc1ccc(C(=O)/C=C/c2ccccc2Cl)cc1
CAKI-1 renal
  TGI: 34.6 µM
HCC-2998 colon
  TGI: 33.2 µM
NCI-H226 lung
  TGI: 61 µM
SF-268 CNS
  TGI: 48 µM
SNB-75 CNS
  TGI: 44.8 µM
U251 CNS
  TGI: 30.3 µM
SW-620 colon
  TGI: 27 µM

## COC(=O)/C(=C/N1CCN(C(=O)c2ccco2)C1=S)C(C)=O
CAKI-1 renal
  GI50: 2.82 µM
  TGI: 8.52 µM
SF-268 CNS
  GI50: 5.84 µM
  TGI: 25.6 µM
SNB-75 CNS
  GI50: 21 µM
  TGI: > 100 µM
MDA-MB-435
  GI50: 4.51 µM
  TGI: 36.6 µM
U251 CNS
  GI50: 5.53 µM
  TGI: 23.1 µM
SW-620 colon
  GI50: 3.9 µM
  TGI: 12.5 µM

## CN/N=C(\C)CC(=O)Nc1cccc(Cl)c1C
CAKI-1 renal
  TGI: > 100 µM
HCC-2998 colon
  TGI: > 100 µM
NCI-H226 lung
  TGI: > 100 µM
SR leukemia
  TGI: 53.5 µM
SF-268 CNS
  TGI: > 100 µM
SNB-75 CNS
  TGI: > 100 µM
U251 CNS
  TGI: > 100 µM

## NC(C(=O)O)C(N)C(=O)O (centres undefined)
CAKI-1 renal
  TGI: > 100 µM
NCI-H226 lung
  TGI: > 100 µM
SR leukemia
  TGI: > 100 µM
SF-268 CNS
  TGI: > 100 µM
HS 578T breast
  TGI: > 100 µM
U251 CNS
  TGI: > 100 µM
SW-620 colon
  TGI: > 100 µM

## O=C(O)/C(O)=C1/C=C(c2ccccc2)c2ccccc21
CAKI-1 renal
  TGI: 63.6 µM
HCC-2998 colon
  TGI: 49.8 µM
NCI-H226 lung
  TGI: 59.6 µM
SR leukemia
  TGI: 47.1 µM
SF-268 CNS
  TGI: 51.7 µM
SNB-75 CNS
  TGI: 61.7 µM
U251 CNS
  TGI: 35.9 µM
SW-620 colon
  TGI: 37.7 µM

## CC(C)OCN1COCN=C1NC#N
CAKI-1 renal
  TGI: > 100 µM
HCC-2998 colon
  TGI: > 100 µM
NCI-H226 lung
  TGI: > 100 µM
SR leukemia
  TGI: > 100 µM
SF-268 CNS
  TGI: > 100 µM
SNB-75 CNS
  TGI: > 100 µM
U251 CNS
  TGI: > 100 µM
SW-620 colon
  TGI: 34.8 µM

## COc1ccc2cc(C(=O)/C=C/c3ccc(OC)c(OC)c3)ccc2c1
CAKI-1 renal
  GI50: 21 µM
  TGI: 97.6 µM
SR leukemia
  GI50: 2.04 µM
  TGI: 6.16 µM
SF-268 CNS
  GI50: 19.2 µM
  TGI: 55.1 µM
MDA-MB-435
  GI50: 5.59 µM
  TGI: 43.4 µM
U251 CNS
  GI50: 11.8 µM
  TGI: 58.8 µM
SW-620 colon
  GI50: 4.21 µM
  TGI: 27.1 µM

## CSC(=S)NN=C1CCCCC1
CAKI-1 renal
  TGI: 65.2 µM
NCI-H226 lung
  TGI: 42.4 µM
SF-268 CNS
  TGI: > 100 µM
SNB-75 CNS
  TGI: > 100 µM
HS 578T breast
  TGI: > 100 µM
MDA-MB-435
  TGI: > 100 µM
U251 CNS
  TGI: > 100 µM
SW-620 colon
  TGI: > 100 µM

## O=C(c1cccs1)c1c(C(F)(F)F)n([O-])c2cc(F)c(F)cc2[n+]1=O
CAKI-1 renal
  GI50: 1.25 µM
  TGI: 4 µM
HCC-2998 colon
  GI50: 6.65 µM
  TGI: 9.07 µM
NCI-H226 lung
  GI50: 3.62 µM
  TGI: 7.47 µM
SR leukemia
  GI50: 0.096 µM
  TGI: 0.48 µM
SF-268 CNS
  GI50: 2.99 µM
  TGI: 6.88 µM
HS 578T breast
  GI50: 1.21 µM
  TGI: 12.1 µM
MDA-MB-435
  GI50: 2.62 µM
  TGI: 5.28 µM
U251 CNS
  GI50: 1.02 µM
  TGI: 2.72 µM
SW-620 colon
  GI50: 2.45 µM
  TGI: 4.09 µM

## Cc1cccc(NC(=O)CC2C(=O)Nc3ccccc3S2(=O)=O)c1C (centres undefined)
CAKI-1 renal
  TGI: > 100 µM
HCC-2998 colon
  TGI: > 100 µM
NCI-H226 lung
  TGI: 58.3 µM
SR leukemia
  TGI: 48 µM
SF-268 CNS
  TGI: > 100 µM
SNB-75 CNS
  TGI: 41.6 µM
U251 CNS
  TGI: 78.1 µM
SW-620 colon
  TGI: 84.2 µM
